Results: ChEMBL document CHEMBL3596095, “Design, synthesis, and biological activity of phenyl-pyrazole derivatives as BCR-ABL kinase inhibitors” (Bioorg Med Chem, 2015)

Legend:
[1] = tested on: K562; test: cells; assay type: functional, cell-based; settings: Homo sapiens, K562, 48 h
Description: Antitumor activity against human K562 cells assessed as inhibition of cell growth after 48 hrs by MTT assay

[2] = target: Bcr/Abl fusion protein (Homo sapiens, UniProt P00519); test: Inhibition of BCR-ABL1 (unknown origin) assessed as ATP remaining by Kinase-Glo luminescent kinase assay
Sequence of Bcr/Abl fusion protein (P00519 whole entry, the tested form may be a part): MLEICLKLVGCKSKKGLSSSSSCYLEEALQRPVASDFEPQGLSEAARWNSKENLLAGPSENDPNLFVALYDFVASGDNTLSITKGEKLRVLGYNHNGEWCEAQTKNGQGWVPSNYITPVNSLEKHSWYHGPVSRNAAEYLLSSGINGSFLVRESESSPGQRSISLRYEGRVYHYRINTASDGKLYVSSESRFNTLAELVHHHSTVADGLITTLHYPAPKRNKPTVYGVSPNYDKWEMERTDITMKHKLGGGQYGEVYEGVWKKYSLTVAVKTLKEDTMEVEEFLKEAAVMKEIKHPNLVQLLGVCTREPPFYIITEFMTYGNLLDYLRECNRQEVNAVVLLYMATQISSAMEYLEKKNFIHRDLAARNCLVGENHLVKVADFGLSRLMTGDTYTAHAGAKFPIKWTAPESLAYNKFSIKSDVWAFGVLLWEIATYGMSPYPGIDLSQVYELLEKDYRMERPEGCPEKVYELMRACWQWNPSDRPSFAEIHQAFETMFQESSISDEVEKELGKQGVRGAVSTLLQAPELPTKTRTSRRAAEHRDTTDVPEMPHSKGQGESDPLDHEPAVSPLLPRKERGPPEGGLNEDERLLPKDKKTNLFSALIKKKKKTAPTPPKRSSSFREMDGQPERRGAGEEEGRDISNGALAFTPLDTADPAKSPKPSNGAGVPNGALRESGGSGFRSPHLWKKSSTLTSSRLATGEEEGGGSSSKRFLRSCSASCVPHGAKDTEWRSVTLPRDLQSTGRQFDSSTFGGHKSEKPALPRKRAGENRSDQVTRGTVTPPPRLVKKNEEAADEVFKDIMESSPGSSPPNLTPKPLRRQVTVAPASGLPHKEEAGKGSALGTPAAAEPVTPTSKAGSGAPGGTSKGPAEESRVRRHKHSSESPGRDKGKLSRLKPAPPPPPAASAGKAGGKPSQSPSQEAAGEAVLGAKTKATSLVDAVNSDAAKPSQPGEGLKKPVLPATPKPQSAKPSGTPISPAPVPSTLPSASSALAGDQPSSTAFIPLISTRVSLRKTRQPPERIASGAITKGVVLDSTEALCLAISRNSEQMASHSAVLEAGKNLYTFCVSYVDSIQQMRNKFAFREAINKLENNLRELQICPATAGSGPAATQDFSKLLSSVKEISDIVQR
Sequence of Bcr/Abl fusion protein (P11274 whole entry, further chain, the tested form may be a part): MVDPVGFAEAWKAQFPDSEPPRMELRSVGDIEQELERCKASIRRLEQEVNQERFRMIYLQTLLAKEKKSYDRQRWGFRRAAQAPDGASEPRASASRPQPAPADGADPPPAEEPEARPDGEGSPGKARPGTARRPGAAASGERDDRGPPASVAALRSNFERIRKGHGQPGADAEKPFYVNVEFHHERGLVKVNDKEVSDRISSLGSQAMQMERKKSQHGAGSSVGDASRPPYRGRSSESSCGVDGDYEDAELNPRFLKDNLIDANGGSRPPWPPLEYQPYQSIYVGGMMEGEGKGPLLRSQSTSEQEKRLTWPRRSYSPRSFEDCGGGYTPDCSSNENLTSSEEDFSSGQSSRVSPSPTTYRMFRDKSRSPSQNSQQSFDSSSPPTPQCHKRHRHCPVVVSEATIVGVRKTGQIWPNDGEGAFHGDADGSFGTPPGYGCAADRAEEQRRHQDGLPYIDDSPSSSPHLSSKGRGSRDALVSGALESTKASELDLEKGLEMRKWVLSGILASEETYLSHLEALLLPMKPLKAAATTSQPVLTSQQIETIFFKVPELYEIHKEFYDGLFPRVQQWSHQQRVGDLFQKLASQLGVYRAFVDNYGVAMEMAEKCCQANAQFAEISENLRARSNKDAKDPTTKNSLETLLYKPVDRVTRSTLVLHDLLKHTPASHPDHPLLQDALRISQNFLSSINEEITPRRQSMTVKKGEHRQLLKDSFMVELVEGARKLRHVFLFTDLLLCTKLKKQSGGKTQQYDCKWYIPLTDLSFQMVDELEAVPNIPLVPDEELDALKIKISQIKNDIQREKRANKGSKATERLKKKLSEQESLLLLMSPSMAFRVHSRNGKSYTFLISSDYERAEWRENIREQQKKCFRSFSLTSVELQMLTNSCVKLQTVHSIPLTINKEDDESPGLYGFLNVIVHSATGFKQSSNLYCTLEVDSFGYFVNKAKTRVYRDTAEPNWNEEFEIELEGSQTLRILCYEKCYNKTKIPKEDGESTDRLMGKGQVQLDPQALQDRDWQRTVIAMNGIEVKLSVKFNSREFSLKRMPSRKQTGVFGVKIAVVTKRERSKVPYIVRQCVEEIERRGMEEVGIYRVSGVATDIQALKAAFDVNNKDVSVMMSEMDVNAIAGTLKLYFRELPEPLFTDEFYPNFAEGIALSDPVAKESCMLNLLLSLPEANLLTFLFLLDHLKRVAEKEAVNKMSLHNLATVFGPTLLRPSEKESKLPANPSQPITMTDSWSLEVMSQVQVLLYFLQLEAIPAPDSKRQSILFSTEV

Structure (SMILES)	IC50 [1] [nM]	IC50 [2] [nM]
Cc1ccc(NC(=O)c2ccc(CN3CCCN(C)CC3)cc2)cc1-n1cc(-c2cccnc2)cn1	8650	26.6
CCN(CC)Cc1ccc(C(=O)Nc2ccc(C)c(-n3cc(-c4cccnc4)cn3)c2)cc1	3260	129
Cc1ccc(NC(=O)c2ccc(CN3CCN(C)CC3)cc2)cc1-n1cc(-c2cccnc2)cn1	1670	50.6
Cc1ccc(NC(=O)c2ccc(CN3CCCC3)cc2)cc1-n1cc(-c2cccnc2)cn1	2740	117
CCN1CCN(Cc2ccc(C(=O)Nc3ccc(C)c(-n4cc(-c5cccnc5)cn4)c3)cc2)CC1	2330	16.9
Cc1ccc(NC(=O)c2ccc(CN3CCN(CCO)CC3)cc2)cc1-n1cc(-c2cccnc2)cn1	98300	175
Cc1ccc(NC(=O)c2ccc(CN3CCOCC3)cc2)cc1-n1cc(-c2cccnc2)cn1	21500	178
Cc1ccc(NC(=O)c2ccc(Cn3ccnc3)cc2)cc1-n1cc(-c2cccnc2)cn1	136000	326

The remaining lines, values ahead:

IC50 [1] [nM]	IC50 [2] [nM]	Structure (SMILES)
18300	46.2	COc1ccc(C(=O)Nc2ccc(C)c(-n3cc(-c4cccnc4)cn3)c2)cc1
12500	214	Cc1ccc(NC(=O)c2ccc(F)cc2)cc1-n1cc(-c2cccnc2)cn1
270	14.2	Cc1ccc(NC(=O)c2cccc(C(F)(F)F)c2)cc1-n1cc(-c2cccnc2)cn1
1320	15.9	Cc1ccc(NC(=O)c2cccc(Cl)c2)cc1-n1cc(-c2cccnc2)cn1
6520	41	CCc1ccc(C(=O)Nc2ccc(C)c(-n3cc(-c4cccnc4)cn3)c2)cc1
760	43.3	Cc1ccc(NC(=O)c2ccc(C(F)(F)F)cc2)cc1-n1cc(-c2cccnc2)cn1
